For orientation: IC50 means the concentration at which inhibition is half-maximal.

“Also recorded” adds a separate entry of the source. Read-outs that look alike come from different tables or passages of the source.

Here are results for one molecule from patent US11572353B2, “Alkynyl-substituted heterocyclic compound, preparation method therefor and medical use thereof” (BEIJING INNOCARE PHARMA TECH CO., LTD., priority 2016, dated 2023).

The test system of series [1] is FGFR2-overexpressed SNU-16 gastric cancer cell line derived xenograft tumors. The format is in vivo. The following applies: for TGI % (tumor growth inhibition) / mean tumor size: day 25. How it is done:
The cells were harvested in 90% confluence and no less than 90% viability, and then counted. […] Mice were inoculated subcutaneously into the right flank with 200 uL of 8×10^6 SNU-16 cells resuspended in 50% Matrigel (purchased from Corning). […] Dosing was initiated on day 0 and effects on tumor growth were evaluated by measuring the percentage of tumor growth inhibition (TGI) at the end of the study. Tolerability was assessed by body weight loss, lethality, and clinical signs of adverse treatment-related side effects. Tumor volume and body weight were measured twice per week during the administration period. The percentage of TGI was determined on day 25 after treatment. The difference between the mean value of tumor volume in the treatment group and that in the vehicle group was analyzed for significance using one-way ANOVA (followed by Dennett's test) at each time point and a P<0.05 was considered to be statistically significant.

Series [2] deals with RT4 bladder cancer cell line. As to the kind of experiment: Inhibition on the proliferation of RT4 cells (luminescent cell viability assay). The format is cell-based. Particulars: Homo sapiens, RT-4, 72 hours. How it is done: (§1) CellTilter-Glo reagent (Promega, Cat. No. G7572) consists of CTG lyophilized powder and CTG buffer. Before use, the lyophilized powder needs to be dissolved in the buffer.
(§2) After overnight incubation, 3 μL of DMEM diluted compound was added to each well, which was then gently centrifuged to mix well, and then the 384-well plate was placed in a 37° C., 5% CO2 incubator to continue the culture, and after 72 hours, the plate was taken out and allowed to stand at room temperature for 30 minutes, next added 15 μL of CTG reagent per well, which was warmed up to room temperature, the plate was shaken gently on a shaker for 3 minutes to ensure sufficient cell lysis, allowed to stand 10 minutes to stabilize the luminescence signal, and then read the luminescence signal with EnVision (Perkin Elmer).
(§3) Where Y is the percentage of inhibition, Bottom is the bottom platform value of the S-curve, Top is the top platform value of the S-curve, X is the logarithm of the concentration of the compound to be tested, and slope factor is the slope coefficient of the curve.
The effect of the compounds of the present invention on cell proliferation of the RT4 bladder cancer cell line was assessed using a luminescent cell viability assay (Table 2).
(§4) For the experimental method, please refer to the method for determining the inhibition on the proliferation of Hep3B cells.

Series [3] deals with human recombinant FGFR2 catalytic domain protein (amino acid 400-821) (Homo sapiens (Human), UniProt P21802). As to the kind of experiment: FGFR2 activity inhibition test (HTRF kinase assay). The format is biochemical. The following applies: 50 μM ATP. How it is done: (§5) The effect of the compounds of the present invention on the in vitro activity of FGFR was assessed by measuring the phosphorylation level of the substrate in a kinase reaction using the HTRF kinase assay kit (Table 1).
Chain of human recombinant FGFR2 catalytic domain protein (amino acid 400-821) (P21802 400-821): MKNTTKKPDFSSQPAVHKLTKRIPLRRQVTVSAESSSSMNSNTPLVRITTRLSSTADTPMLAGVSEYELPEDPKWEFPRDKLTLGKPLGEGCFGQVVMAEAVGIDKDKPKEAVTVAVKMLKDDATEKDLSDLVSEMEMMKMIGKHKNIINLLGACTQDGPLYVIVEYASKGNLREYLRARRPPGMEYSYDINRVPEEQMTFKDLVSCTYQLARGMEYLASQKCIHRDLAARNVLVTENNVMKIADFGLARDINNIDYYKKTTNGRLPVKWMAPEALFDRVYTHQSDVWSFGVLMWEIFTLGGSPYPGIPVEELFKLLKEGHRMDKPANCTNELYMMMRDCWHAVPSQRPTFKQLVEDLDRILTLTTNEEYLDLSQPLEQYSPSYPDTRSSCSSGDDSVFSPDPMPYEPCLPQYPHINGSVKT
(§6) If the IC50 value of a compound is very low, the initial concentration of the compound can be lowered.
(§7) The IC50 value of the compound was calculated from the 10 concentration points using the XLfit software in Excel by the following formula: Y=Bottom+(Top−Bottom)/(1+10^((log IC50−X)*slope factor))
as §3

For the next series, the system named is Hep3B hepatoma cell line. As to the kind of experiment: Inhibition on the proliferation of Hep3B cells (luminescent cell viability assay). Particulars: Homo sapiens, 72 hours. The format is cell-based. How it is done: The effect of the compounds of the present invention on cell proliferation of Hep3B hepatoma cell line was assessed using a luminescent cell viability assay (Table 2).
as §1, §2, §3

Series [4] addresses human recombinant FGFR4 catalytic domain protein (amino acid 460-802) (Homo sapiens (Human), UniProt P22455). Description: FGFR4 activity inhibition test (HTRF kinase assay). The format is biochemical. The following applies: 90 μM ATP. How it is done: as §5, §6, §7, §3
Background: TR-FRET usually uses a lanthanide donor and a delayed reading to cut background.

Series [5] has as its target human recombinant FGFR3 catalytic domain protein (amino acid 399-806) (Homo sapiens (Human), UniProt P22607). As to the kind of experiment: FGFR3 activity inhibition test (HTRF kinase assay). It counts as biochemical. The following applies: 90 μM ATP. How it is done: as §5, §6, §7, §3
Series [6] deals with human recombinant FGFR1 catalytic domain protein (amino acid 308-731) (Homo sapiens (Human), UniProt P11362). Description: FGFR1 activity inhibition test (HTRF kinase assay). It counts as biochemical. Particulars: 40 μM ATP. How it is done:
as §5, §6, §7, §3

The subject of series [7] is SNU-16 gastric cancer cell line. As to the kind of experiment: Inhibition on the proliferation of SNU-16 cells (luminescent cell viability assay). It counts as cell-based. Particulars: Homo sapiens, 72 hours. How it is done:
as §1, §2, §3
The effect of the compounds of the present invention on cell proliferation of SNU-16 gastric cancer cell line was assessed using a luminescent cell viability assay (Table 2).
as §4

Chain of human recombinant FGFR1 catalytic domain protein (amino acid 308-731) (P11362 other isoform, or with tags, fused parts or gaps): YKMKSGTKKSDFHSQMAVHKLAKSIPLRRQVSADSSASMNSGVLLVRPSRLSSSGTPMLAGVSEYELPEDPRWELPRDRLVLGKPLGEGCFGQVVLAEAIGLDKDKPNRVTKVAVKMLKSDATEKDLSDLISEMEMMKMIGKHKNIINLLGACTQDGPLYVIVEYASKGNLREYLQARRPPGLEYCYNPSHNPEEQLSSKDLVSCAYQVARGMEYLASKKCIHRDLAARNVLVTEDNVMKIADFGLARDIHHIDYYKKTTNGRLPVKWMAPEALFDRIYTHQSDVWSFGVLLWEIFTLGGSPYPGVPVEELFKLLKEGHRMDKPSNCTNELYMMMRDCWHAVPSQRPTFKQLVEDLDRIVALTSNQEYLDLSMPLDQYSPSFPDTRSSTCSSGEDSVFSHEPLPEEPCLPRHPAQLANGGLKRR
Chain of human recombinant FGFR3 catalytic domain protein (amino acid 399-806) (P22607 399-806): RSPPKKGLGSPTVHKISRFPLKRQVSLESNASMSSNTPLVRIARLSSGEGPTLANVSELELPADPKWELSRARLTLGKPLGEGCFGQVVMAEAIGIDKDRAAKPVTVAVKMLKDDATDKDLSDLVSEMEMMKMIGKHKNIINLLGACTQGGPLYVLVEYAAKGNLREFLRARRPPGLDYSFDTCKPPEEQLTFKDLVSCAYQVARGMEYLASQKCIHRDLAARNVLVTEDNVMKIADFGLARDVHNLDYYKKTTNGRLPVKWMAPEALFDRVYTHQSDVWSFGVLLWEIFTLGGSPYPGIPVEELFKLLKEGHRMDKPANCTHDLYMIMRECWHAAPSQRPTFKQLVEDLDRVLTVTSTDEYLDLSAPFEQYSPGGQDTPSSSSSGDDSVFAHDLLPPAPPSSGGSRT
Chain of human recombinant FGFR4 catalytic domain protein (amino acid 460-802) (P22455 460-802): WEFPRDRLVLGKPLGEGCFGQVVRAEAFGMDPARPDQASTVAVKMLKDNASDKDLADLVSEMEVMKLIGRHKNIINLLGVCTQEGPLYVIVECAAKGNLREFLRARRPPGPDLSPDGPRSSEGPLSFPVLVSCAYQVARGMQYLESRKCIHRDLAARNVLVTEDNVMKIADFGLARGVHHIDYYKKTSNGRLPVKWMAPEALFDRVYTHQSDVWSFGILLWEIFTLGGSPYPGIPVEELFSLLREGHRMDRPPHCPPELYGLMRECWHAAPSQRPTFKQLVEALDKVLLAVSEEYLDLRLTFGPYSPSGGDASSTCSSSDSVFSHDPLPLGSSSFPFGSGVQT

On to `C=CC(=O)N1CC[C@H](n2nc(C#Cc3cc(OC)cc(OC)c3)c(C(N)=O)c2NC)C1` [Compound 21, (S)-1-(1-acryloylpyrrolidin-3-yl)-3-((3,5-dimethoxyphenyl)ethynyl)-5-(methylamino)-1H-pyrazole-4-carboxamide], for which the “TGI % (tumor growth inhibition)” value in series [1] (0.3 mg/kg oral BID for 25 days) is 91.0%; in series [1] (1 mg/kg oral BID for 25 days), 88.3%; in series [1] (3 mg/kg oral BID for 25 days), 95.9%; in series [1] (10 mg/kg oral BID for 25 days), 108%. In addition, the mean tumor size in series [1] (0.3 mg/kg oral BID for 25 days) was 240 mm^3; in series [1] (1 mg/kg oral BID for 25 days) it was 261 mm^3; in series [1] (3 mg/kg oral BID for 25 days) it was 200 mm^3; in series [1] (10 mg/kg oral BID for 25 days), 103 mm^3. Also, in series [1] (10 mg/kg BID), the locomotor activities result is “without significant decrease of locomotor activities”. The “mean body weight loss” value in series [1] (10 mg/kg BID) worked out at 11%. Also, the “anti-tumor activity (overall)” value in series [1] (0.3, 1, 3 and 10 mg/kg oral BID) was “dose-dependently reduced tumor size; also recorded: marked anti-tumor activities”. In series [1] (3, 1 and 0.3 mg/kg BID, during the study), the body weight loss result is “no body weight loss”. Also, in series [1] (3, 1 and 0.3 mg/kg BID, tumor-bearing animals), the tolerability entry was “well-tolerated”. For the same molecule, the “tolerability (overall summary)” value in series [1] (tumor-bearing animals, summary of study) is “well-tolerated”. In addition, the IC50 (in series [2]; in series [3]; in the series with Hep3B hepatoma cell line; in series [4]; in series [5]; in series [6]) was under 10 nM each time. In series [7], this molecule displayed an IC50 of under 10 nM.
